In patent publication EP0326963B1, “Deodorant as well as deodorizing food, drink and seasoning” (priority 1988, dated 1989):
“And” between values parts separate entries of the source, which are not always exact repeats. Equal entries are not always repeated.

Assays:
[1] = test system: urogenous smell; test: Test Example 1: smell of fresh urine of cats, potassium phytate solution 8mg/ml; format: in vivo; design: key to Deodorizing Effects 1st day / Deodorizing Effects 3rd day / Deodorizing Effects 5th day / Deodorizing Effects 7th day / Deodorizing Effects 14th day: 1: No change; 2: Weaken; 3: Almost no recognizable smell
Method: A solution containing potassium phytate in an amount of 8mg/ml (Example 1) was administered to cats (5 heads, body weight of about 5kg) in an amount of 3ml/head/day over 14 days. After 1, 3, 5, 7 and 14 days from the first administration, fresh urine was taken with use of a catheter to immediately check a degree of its smell by 3 judges. […]

[2] = test system: urogenous smell; test: Test Example 2: smell of fresh urine of cats, potassium phytate solution 20mg/ml; format: in vivo, crossbred mature cats; design: key to Deodorizing Effects 1st day / Deodorizing Effects 3rd day / Deodorizing Effects 5th day / Deodorizing Effects 7th day: 1: No change; 2: Weaken; 3: Almost no recognizable smell; details: 20mg/ml solution
Method: A solution containing potassium phytate in an amount of 20mg/ml (Example 1) was administered to crossbred mature cats (8 heads, body weight of about 5kg) in an amount of 3ml/head/day over 7 days. After 1, 3, 5 and 7 days from the first administration, fresh urine was taken with use of a catheter to immediately check a degree of its smell by 3 judges. […]

[3] = test system: urogenous smell; test: Test Example 6: urogenous smell of hamsters, potassium phytate in drinking water; format: in vivo; details: hamsters (2 pairs); 10mg/kg in drinking water over 14 days; checked on finely cut newspaper used as litter
Method: An aqueous solution containing potassium phytate in an amount of 20mg/ml was prepared. The solution was added to drinking water for each experimented animal (hamsters, 2 pairs) over 14 days, so that each animal can intake the compound in an amount of 10mg/kg.

[4] = test system: urogenous smell; test: Test Example 5: smell of fresh urine of rabbits, potassium phytate in drinking water; format: in vivo; design: key to Deodorizing Effects 1st day / Deodorizing Effects 3rd day / Deodorizing Effects 5th day / Deodorizing Effects 7th day / Deodorizing Effects 14th day: 1: No change; 2: Weaken; 3: Almost no recognizable smell
Method: An aqueous solution containing potassium phytate in an amount of 20mg/ml was added to 170 ml of drinking water for each experimented animal (rabbits, 2 heads) in amount of 2ml. The resulting drinking water was given for each day over 14 days, so that it can be […] by the animal in free together with their food. After 1, 3, 5, 7 and 14 days from the first giving of the drinking water containing the compound, fresh urine was taken with use of a catheter to immediately check a degree of its smell by 3 judges. […] While, there was no change in a fragrant smell which may be considered due to plant terpenes contained in their food.

[5] = test system: urogenous smell; test: Test Example 4: smell of fresh urine of cats, cat food containing potassium phytate; format: in vivo, crossbred mature cats; design: key to Deodorizing Effects 2nd day / Deodorizing Effects 3rd day / Deodorizing Effects 4th day / Deodorizing Effects 5th day / Deodorizing Effects 7th day: 1: No change; 2: Weaken; 3: Almost no recognizable smell; details: cat food with 0.1mg/g
Method: To a moisture type cat food, potassium phytate was composed in an amount of 0.1mg/g. The cat food was given to crossbred mature cats (2 heads, body weight of about 5kg) in an amount 100g/day over 7 days. After 2, 3, 4, 5 and 7 days from the first administration, fresh urine was taken with use of a catheter to immediately check a degree of its smell by 3 judges. […]

[6] = test system: ozostomy; format: in vivo, normal persons; details: 3 judges
Method: Following substances generating unpleasant smell were intaken by each panel (3 normal persons) who immediately drinks an aqueous solution of potassium phytinate (105mg/10ml). On contrary thereto, each control panel drinks were drinking water in same amount.
An inspection of ozostmy was carried out from time to time at intervals by 3 judges (to be judged as positive, when 2 or 3 judges feel the unpleasant smell) and by self notification of the experimented person.
Unpleasant smell generating materials : • a) Garlic (10g as grated one), • b) Leek (50g as cooked one), • c) Scallion (50g as pickled one), • d) Onion (100g as grated one), • e) Welsh onion (100g as cooked one), • f) Tobacco (carrying out a functional test by the third party on smokers who smoke more than 50 cigarette per diem), and • g) Alcohol (drink 300ml of Japanese sake, when the stomach of experimented person emties).

[7] = cats, 8mg/ml solution, 3ml/head/day
[8] = rabbits, potassium phytate in drinking water

O=P(O)(O)O[C@H]1[C@H](OP(=O)(O)O)[C@@H](OP(=O)(O)O)[C@H](OP(=O)(O)O)[C@@H](OP(=O)(O)O)[C@H]1OP(=O)(O)O [potassium phytate, Potassium phytate] was tested, and the “Efficiency 1st day” value ([1]; cats (5 heads), 8mg/ml solution, 3ml/head/day, 1st day) was 0/5, the “Efficiency 3rd day” value ([1]; cats (5 heads), 8mg/ml solution, 3ml/head/day, 3rd day) was 0/5 and the “Efficiency 5th day” value ([1]; cats (5 heads), 8mg/ml solution, 3ml/head/day, 5th day) was 4/5. For the same compound, the “Efficiency 7th day” value ([1]; cats (5 heads), 8mg/ml solution, 3ml/head/day, 7th day) was 5/5, the “Efficiency 14th day” value ([1]; cats (5 heads), 8mg/ml solution, 3ml/head/day, 14th day) was 5/5 and the “deodorizing effect of the compound appears” value [1, 7] was “by third day”. The “urogenous smell was disappeared” value [1, 7] was “on fifth day”, the similar test repeated ([1]; cats, repeated after 10 days from the final administration) was “results same with said first test” and the “urogenous smell after the final administration” value ([1]; cats, several days after the final administration) was “appeared again”. For the same compound, the “Deodorizing Effects 3rd day” value ([1]; individual cat, 8mg/ml solution, 3ml/head/day over 14 days, 3rd day) was 1 and 2 (4×), the “Deodorizing Effects 5th day” value ([1]; individual cat, 8mg/ml solution, 3ml/head/day over 14 days, 5th day) was 2 and 3 (4×) and the “Deodorizing Effects 7th day” value ([1]; individual cat, 8mg/ml solution, 3ml/head/day over 14 days, 7th day) was 3. For the same compound, the “Deodorizing Effects 14th day” value ([1]; individual cat, 8mg/ml solution, 3ml/head/day over 14 days, 14th day) was 3, the “Deodorizing Effects 1st day” value ([1]; individual cat, 8mg/ml solution, 3ml/head/day over 14 days, fresh urine, 3 judges, 1st day) was 1 and the “Efficiency 1st day” value ([2]; cats (8 heads), 3ml/head/day, 1st day) was 0/8. For the same compound, the “Efficiency 3rd day” value ([2]; cats (8 heads), 3ml/head/day, 3rd day) was 0/8, the “Efficiency 5th day” value ([2]; cats (8 heads), 3ml/head/day, 5th day) was 8/8 and the “Efficiency 7th day” value ([2]; cats (8 heads), 3ml/head/day, 7th day) was 8/8. For the same compound, the “deodorizing effect of the compound appears” value ([2]; cats, 3ml/head/day) was “by third day”, the urogenous smell disappeared ([2]; cats, 3ml/head/day) was “on fifth day” and the “Deodorizing Effects 1st day” value ([2]; individual cat, 3ml/head/day over 7 days, 1st day) was 1 (6×) and 2 (2×). For the same compound, the “Deodorizing Effects 3rd day” value ([2]; individual cat, 3ml/head/day over 7 days, 3rd day) was 2, the “Deodorizing Effects 5th day” value ([2]; individual cat, 3ml/head/day over 7 days, 5th day) was 3 and the “Deodorizing Effects 7th day” value ([2]; individual cat, 3ml/head/day over 7 days, 7th day) was 3. The “intensity of the urogenous smell” value [3] was “decreases on several days from the first administration”, the “Deodorizing Effects 1st day” value ([4]; individual rabbit, 2ml of 20mg/ml solution in 170 ml drinking water per day over 14 days, 1st day) was 1 and the “Deodorizing Effects 3rd day” value ([4]; individual rabbit, 2ml of 20mg/ml solution in 170 ml drinking water per day, 3rd day) was 2 (3×) and 1. The “Deodorizing Effects 5th day” value ([4]; individual rabbit, 2ml of 20mg/ml solution in 170 ml drinking water per day, 5th day) was 3 (3×) and 2, the “Deodorizing Effects 7th day” value ([4]; individual rabbit, 2ml of 20mg/ml solution in 170 ml drinking water per day, 7th day) was 3 and the “Deodorizing Effects 14th day” value ([4]; individual rabbit, 2ml of 20mg/ml solution in 170 ml drinking water per day, 14th day) was 3. The “Efficiency 1st day” value ([4]; rabbits, 2ml of 20mg/ml solution in drinking water per day, 1st day) was 0/4, the “Efficiency 3rd day” value ([4]; rabbits, 2ml of 20mg/ml solution in drinking water per day, 3rd day) was 0/4 and the “Efficiency 5th day” value ([4]; rabbits, 2ml of 20mg/ml solution in drinking water per day, 5th day) was 3/4. The “Efficiency 7th day” value ([4]; rabbits, 2ml of 20mg/ml solution in drinking water per day, 7th day) was 4/4, the “Efficiency 14th day” value ([4]; rabbits, 2ml of 20mg/ml solution in drinking water per day, 14th day) was 4/4 and the “almost no unpleasant urogenous smell was notified” value [4, 8] was “on fifth day”. For the same compound, the “deodorizing effect of the compound appears” value [4, 8] was “by third day”, the “fragrant smell (considered due to plant terpenes contained in their food)” value [4, 8] was “no change” and the “Efficiency 2nd day” value ([5]; cats (2 heads), 100g/day, 2nd day) was 0/2. The “Efficiency 3rd day” value ([5]; cats (2 heads), 100g/day, 3rd day) was 1/2, the “Efficiency 4th day” value ([5]; cats (2 heads), 100g/day, 4th day) was 2/2 and the “Efficiency 5th day” value ([5]; cats (2 heads), 100g/day, 5th day) was 2/2. For the same compound, the “Efficiency 7th day” value ([5]; cats (2 heads), 100g/day, 7th day) was 2/2, the “deodorizing effect of the compound appears” value ([5]; cats, 100g/day) was “by third day” and the urogenous smell disappeared ([5]; cats, 100g/day) was “on forth day”. For the same compound, the “Deodorizing Effects 2nd day” value ([5]; individual cat, 100g/day over 7 days, 2nd day) was 2, the “Deodorizing Effects 3rd day” value ([5]; individual cat, 100g/day, 3rd day) was 3 and 2 and the “Deodorizing Effects 4th day” value ([5]; individual cat, 100g/day, 4th day) was 3. For the same compound, the “Deodorizing Effects 5th day” value ([5]; individual cat, 100g/day, 5th day) was 3, the “Deodorizing Effects 7th day” value ([5]; individual cat, 100g/day, 7th day) was 3 and the “ozostomy on the test group, first inspection” value ([6]; aqueous solution 105mg/10ml drunk immediately after intake of smell generating material, 1 hour from the intake) was “not so strong”. The “ozostomy on the test group, second inspection” value ([6]; aqueous solution 105mg/10ml, 3 hours from the intake) was “apparently decreases”.
